According to patent US20190359645A1, “2'3'-CYCLIC DINUCLEOTIDES COMPRISING CARBOCYCLIC NUCLEOTIDE” (Institute of Organic Chemistry and Biochemistry ASCR, V.V.I., priority 2018, published 2019):

Biological target: WT STING (Homo sapiens, UniProt Q86WV6, H232R)
Assay: Digitonin assay using 293T wtSTING-FL reporter cells
Type: cell-based
Design: host or cells: 293T (ATCC CRL-3216), stably transfected; also carries the 4xISRE firefly luciferase reporter
Conditions: 293T wtSTING-FL cells, digitonin buffer 30 min, then 5 h, ISRE firefly luciferase reporter; read-out: Digitonin assay EC50 WT STING
Description: Two complementary oligonucleotides of the sequence […] […] […] […] (SEQ ID NO: 1) and […] […] (SEQ ID NO:2) containing four interferon-sensitive response elements (ISRE) were synthesized by Sigma Aldrich (Czech Republic, Prague). The oligonucleotides were mixed in equal molar amounts, hybridized, and cleaved by restriction endonucleases HindIII (cat. #. R^0104S, NEB, Ipswich, USA) and BglII (cat. # R^0144S, NEB, Ipswich, USA). Ultimately, they were ligated into plasmid pGL4.27 (cat. # E6651, Promega, Madison, USA) linearized with the same enzymes. As a result, the sequence with four ISRE sites was placed upstream of the minimum promoter of firefly luciferase reporter gene.
293T cells (cat. # CRL-3216, ATCC, Manassas, USA) were seeded a day before transfection at density 125,000 cells per cm^2 onto poly-D-lysine (cat. # P6407, Sigma Aldrich, Czech Republic) coated six well plates in antibiotic free DMEM with high glucose (cat. # D5796, Sigma Aldrich, Czech Republic) supplemented with 10% heat inactivated FBS (cat. # S1520, Biowest, Riverside, USA). On the day of transfection, 2.5 μg of the plasmid pUNO1-hSTING-WT (cat. # punol-hstingwt, InvivoGen, San Diego, USA,) encoding human wild type STING (WT STING) was diluted in 125 μL OptiMEM medium (cat. #31985062, ThermoFisher, Waltham, USA) and mixed with 125 μL of the same medium containing 12.5 μL of Lipofectamine 2000 (cat. #11668019, ThermoFisher, Waltham, USA). After 5 minutes incubation at room temperature (RT), 250 μL of the mixture was added dropwise to the cells in one well. Cells were incubated 36 hours at 37° C. with 5% CO2, and then detached with 0.05% Trypsin and 0.22 g/L EDTA (both cat. # L0941, Biowest, Riverside, USA).
Transfected cells were seeded onto poly-D-lysine coated six well plates at density 50,000 cells per 1 cm^2 in DMEM medium with high glucose containing 10% heat inactivated FBS, […] blasticidin (cat. # ant-bl-05, InvivoGen, San Diego, USA), 0.06 mg/ml Penicillin G and 0.1 mg/ml Streptomycin Sulfate (both cat. #. L0018, Biowest, Riverside, USA). The medium was replenished every 3-4 days until visible colonies of cells resistant to blasticidin were formed.
Blasticidin resistant cells stably expressing WT STING were further transfected with […] plasmid following the same procedure as described above. The transfected cells were selected for the resistance to 300 μg/mL hygromycin (cat. #. 10687010, ThermoFisher, Waltham, USA) in DMEM with high glucose containing 10% heat inactivated FBS, […] blasticidin, 0.06 mg/ml Penicillin G and 0.1 mg/ml Streptomycin Sulfate. Homogeneous culture of stably double transfected cells was prepared by limiting dilution of cells in 96 well plates and wells with cells were selected that originated from a single cell. These cells were expanded, and expression of WT STING was confirmed by western blot using monoclonal mouse anti STING antibodies (cat. #. MAB7169, 1:1000 dilution; […] cat. #. HAF007, 1:2000 dilution, both from R&D Systems, Minneapolis, USA), and by induction of firefly luciferase expression in the presence of 50 μM STING agonist 2′3′ cGAMP (cat. # tlrl-nacga23, InvivoGen, San Diego, USA). Genomic DNA from the transfected cells was amplified with primers pUNO1_Seq_F ([…]) (SEQ ID NO:3) and pUNO1_Seq_R ([…]) (SEQ ID NO:4) that were complementary to pUNO1 plasmid and the presence of WT STING gene in the transfected cells was confirmed by DNA sequencing.
293T wtSTING-FL cells were seeded at density of 250,000 cells per cm^2 onto 96 well poly-D-lysine coated plates in 100 μl DMEM with high glucose supplemented with 10% heat inactivated FBS. […]

Chain of WT STING (Q86WV6 whole entry H232R): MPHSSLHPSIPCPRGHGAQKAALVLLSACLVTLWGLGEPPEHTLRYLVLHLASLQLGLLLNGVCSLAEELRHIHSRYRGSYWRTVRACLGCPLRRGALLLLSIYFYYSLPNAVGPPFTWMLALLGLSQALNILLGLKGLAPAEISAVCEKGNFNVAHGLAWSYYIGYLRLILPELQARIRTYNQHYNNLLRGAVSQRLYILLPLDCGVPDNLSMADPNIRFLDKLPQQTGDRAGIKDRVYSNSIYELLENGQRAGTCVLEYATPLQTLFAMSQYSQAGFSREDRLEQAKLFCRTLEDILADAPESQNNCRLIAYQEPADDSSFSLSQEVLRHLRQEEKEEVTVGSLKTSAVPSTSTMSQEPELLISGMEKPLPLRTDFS

Going from `Nc1ncnc2c1ncn2[C@@H]1O[C@@H]2COP(=O)(S)O[C@@H]3[C@H](F)[C@@H](COP(=O)(S)O[C@H]2[C@H]1F)C[C@H]3n1cnc2c(=O)[nH]cnc21` (single isomer, unassigned) [Compound 128a] to `Nc1nc2c(ncn2[C@@H]2C[C@@H]3COP(=O)(O)OC4C(O)[C@H](n5cnc6c(N)ncnc65)O[C@@H]4COP(=O)(O)OC2C3O)c(=O)[nH]1` (stereo partly drawn) [Compound 102, (6R,8R,15R,17R)-17-(2-amino-6-oxo-6,9-dihydro-1H-purin-9-yl)-8-(6-amino-9H-purin-9-yl)-3,9,12,18-tetrahydroxy-2,4,7,11,13-pentaoxa-3λ^5,12λ^5-diphosphatricyclo[13.2.1.0^6,10]octadecane-3,12-dione], the EC50 rises from 40 nM to 100 nM (2.5-fold). The first is the more potent here.

Compared with `Nc1ncnc2c1ncn2[C@@H]1O[C@@H]2COP(=O)(S)O[C@@H]3[C@H](F)[C@@H](COP(=O)(S)O[C@H]2[C@H]1F)C[C@H]3n1cnc2c(=O)[nH]cnc21` (single isomer, unassigned) [Compound 128b], `Nc1nc2c(ncn2[C@@H]2C[C@@H]3COP(=O)(O)OC4C(N)[C@H](n5cnc6c(N)ncnc65)O[C@@H]4COP(=O)(O)OC2C3O)c(=O)[nH]1` (stereo partly drawn) [Compound 109, (6R,8R,15R,17R)-9-amino-17-(2-amino-6-oxo-6,9-dihydro-1H-purin-9-yl)-8-(6-amino-9H-purin-9-yl)-3,12,18-trihydroxy-2,4,7,11,13-pentaoxa-3λ^5,12λ^5-diphosphatricyclo[13.2.1.0^6,10]octadecane-3,12-dione] is 3.1-fold lower in EC50: 400 nM for the first, 130 nM for the second.

Going from `Nc1ncnc2c1ncn2[C@@H]1O[C@@H]2COP(=O)(S)O[C@@H]3[C@H](F)[C@@H](COP(=O)(S)O[C@H]2[C@H]1F)C[C@H]3n1cnc2c(=O)[nH]cnc21` (single isomer, unassigned) [Compound 128c] to `Nc1nc2c(ncn2[C@@H]2C[C@@H]3COP(=O)(O)OC4C(F)[C@H](n5cnc6c(N)nc(F)nc65)O[C@@H]4COP(=O)(O)OC2C3O)c(=O)[nH]1` (stereo partly drawn) [Compound 111, (6R,8R,15R,17R)-8-(6-amino-2-fluoro-9H-purin-9-yl)-17-(2-amino-6-oxo-6,9-dihydro-1H-purin-9-yl)-9-fluoro-3,12,18-trihydroxy-2,4,7,11,13-pentaoxa-3λ^5,12λ^5-diphosphatricyclo[13.2.1.0^6,10]octadecane-3,12-dione], the EC50 falls from 60 nM to 30 nM (2-fold).

Compared with `Nc1ncnc2c1ncn2[C@@H]1O[C@@H]2COP(=O)(S)O[C@@H]3[C@H](F)[C@@H](COP(=O)(S)O[C@H]2[C@H]1F)C[C@H]3n1cnc2c(=O)[nH]cnc21` (single isomer, unassigned) [Compound 128d], `Nc1nc2c(ncn2[C@@H]2C[C@@H]3COP(=O)(O)OC4C(O)[C@H](n5cnc6c(=O)[nH]cnc65)O[C@@H]4COP(=O)(O)OC2C3O)c(=O)[nH]1` (stereo partly drawn) [Compound 104, (6R,8R,15R,17R)-17-(2-amino-6-oxo-6,9-dihydro-1H-purin-9-yl)-3,9,12,18-tetrahydroxy-8-(6-oxo-6,9-dihydro-1H-purin-9-yl)-2,4,7,11,13-pentaoxa-3λ^5,12λ^5-diphosphatricyclo[13.2.1.0^6,10]octadecane-3,12-dione] is 5-fold higher in EC50: 20 nM for the first, 100 nM for the second. The first is the more potent here.

Compared with `Nc1nc2c(ncn2[C@@H]2C[C@@H]3COP(=O)(O)OC4C(O)[C@H](n5cnc6c(N)nc(F)nc65)O[C@@H]4COP(=O)(O)OC2C3O)c(=O)[nH]1` (stereo partly drawn) [Compound 103, (6R,8R,15R,17R)-8-(6-amino-2-fluoro-9H-purin-9-yl)-17-(2-amino-6-oxo-6,9-dihydro-1H-purin-9-yl)-3,9,12,18-tetrahydroxy-2,4,7,11,13-pentaoxa-3λ^5,12λ^5-diphosphatricyclo[13.2.1.0^6,10]octadecane-3,12-dione], `Nc1nc(N)c2ncn([C@@H]3O[C@@H]4COP(=O)(O)OC5C(O)[C@@H](COP(=O)(O)OC4C3O)C[C@H]5n3cnc4c(=O)[nH]c(N)nc43)c2n1` (stereo partly drawn) [Compound 105, (6R,8R,15R,17R)-17-(2-amino-6-oxo-6,9-dihydro-1H-purin-9-yl)-8-(2,6-diamino-9H-purin-9-yl)-3,9,12,18-tetrahydroxy-2,4,7,11,13-pentaoxa-3λ^5,12λ^5-diphosphatricyclo[13.2.1.0^6,10]octadecane-3,12-dione] is 3-fold lower in EC50: 1500 nM for the first, 500 nM for the second. The second is the more potent here.

Compared with `Nc1ncc2ncn([C@@H]3O[C@@H]4COP(=O)(O)OC5C(O)[C@@H](COP(=O)(O)OC4C3O)C[C@H]5n3cnc4c(=O)[nH]c(N)nc43)c2n1` (stereo partly drawn) [Compound 106, (6R,8R,15R,17R)-17-(2-amino-6-oxo-6,9-dihydro-1H-purin-9-yl)-8-(2-amino-9H-purin-9-yl)-3,9,12,18-tetrahydroxy-2,4,7,11,13-pentaoxa-3λ^5,12λ^5-diphosphatricyclo[13.2.1.0^6,10]octadecane-3,12-dione], `CSc1nc(N)nc2c1ncn2[C@@H]1O[C@@H]2COP(=O)(O)OC3C(O)[C@@H](COP(=O)(O)OC2C1O)C[C@H]3n1cnc2c(=O)[nH]c(N)nc21` (stereo partly drawn) [Compound 112, (6R,8R,15R,17R)-8-[2-amino-6-(methylsulfanyl)-9H-purin-9-yl]-17-(2-amino-6-oxo-6,9-dihydro-1H-purin-9-yl)-3,9,12,18-tetrahydroxy-2,4,7,11,13-pentaoxa-3λ^5,12λ^5-diphosphatricyclo[13.2.1.0^6,10]octadecane-3,12-dione] is 76-fold higher in EC50: 200 nM for the first, 15100 nM for the second.

Going from `Nc1nc2c(ncn2[C@@H]2C[C@@H]3COP(=O)(O)OC4C(O)[C@H](n5cnc6c(S)ncnc65)O[C@@H]4COP(=O)(O)OC2C3O)c(=O)[nH]1` (stereo partly drawn) [Compound 107, (6R,8R,15R,17R)-17-(2-amino-6-oxo-6,9-dihydro-1H-purin-9-yl)-3,9,12,18-tetrahydroxy-8-(6-sulfanyl-9H-purin-9-yl)-2,4,7,11,13-pentaoxa-3λ^5,12λ^5-diphosphatricyclo[13.2.1.0^6,10]octadecane-3,12-dione] to `CNc1ncnc2c1ncn2[C@@H]1O[C@@H]2COP(=O)(O)OC3C(O)[C@@H](COP(=O)(O)OC2C1O)C[C@H]3n1cnc2c(=O)[nH]c(N)nc21` (stereo partly drawn) [Compound 108, (6R,8R,15R,17R)-17-(2-amino-6-oxo-6,9-dihydro-1H-purin-9-yl)-3,9,12,18-tetrahydroxy-8-[6-(methylamino)-9H-purin-9-yl]-2,4,7,11,13-pentaoxa-3λ^5,12λ^5-diphosphatricyclo[13.2.1.0^6,10]octadecane-3,12-dione], the EC50 falls from 6400 nM to 170 nM (38-fold).

Compound `CSc1ncnc2c1ncn2[C@@H]1O[C@@H]2COP(=O)(O)OC3C(O)[C@@H](COP(=O)(O)OC2C1O)C[C@H]3n1cnc2c(=O)[nH]c(N)nc21` (stereo partly drawn) [Compound 110, (6R,8R,15R,17R)-17-(2-amino-6-oxo-6,9-dihydro-1H-purin-9-yl)-3,9,12,18-tetrahydroxy-8-[6-(methylsulfanyl)-9H-purin-9-yl]-2,4,7,11,13-pentaoxa-3λ^5,12λ^5-diphosphatricyclo[13.2.1.0^6,10]octadecane-3,12-dione] has an EC50 of 230 nM.

Same assay, conditions: Digitonin assay EC50 WT STING, 293T wtSTING-FL cells, digitonin buffer 30 min, then 5 h, ISRE firefly luciferase reporter

`Nc1nc2c(ncn2[C@@H]2C[C@@H]3COP(=O)(O)OC4C(O)[C@H](n5cnc6c(N)ncnc65)O[C@@H]4COP(O)(=S)OC2C3O)c(=O)[nH]1` (stereo partly drawn) [Compound 101, 2-amino-9-[(6R,8R,15R,17R)-8-(6-amino-9H-purin-9-yl)-3,9,12,18-tetrahydroxy-12-oxo-3-sulfanylidene-2,4,7,11,13-pentaoxa-3λ^5,12λ^5-diphosphatricyclo[13.2.1.0^6,10]octadecan-17-yl]-6,9-dihydro-1H-purin-6-one] showed an EC50 of 10 nM.
